“And” between values parts separate entries of the source, which are not always exact repeats. Equal entries are not always repeated.
How the values were obtained:
[1] = Isothermal turbidity, transition pH; type: physicochemical; settings: for pKa: previously estimated, imidazole-containing ImAG
Method: (§1) Solutions of 0.650 mL of ImAGhD2OH were prepared at 5 mM with 4 M KI. In the case of ImAGpD2OH, the solutions prepared were 5 mM with 2 M KI. By following this procedure the following ratio is recommended between ImAGhD2OH (or ImAGpD2OH) with KI salt: 0-10 mM of ImAGhD2OH (or ImAGpD2OH) with 2-4 M KI. To dissolve the solids it was prepared a 0.1 M sodium acetate buffer for pH values of 5, 5.1, 5.2, 5.3, 5.4, 5.5, 5.6, 5.7, 5.8, 5.9. For pH 6-7, PBS from Fisher Scientific was used. The samples were put in the refrigerator (−10° C.) overnight (˜12 h) for equilibration. This sample concentration was used for turbidity experiments, DSC, and DLS experiments. The concentrations of the resulting assemblies of SGQ and f-SHS were calculated in terms of the molecular weights of monomeric 8ArG derivative ImAGpD2OH or ImAGhD2OH.
Before the imidazole modification of ImAGpD2OH and ImAGhD2OH, chalcone imidazole standard derivative (E)-3-(1-methyl-1H-imidazol-2-yl)-1-phenylprop-2-en-1-one (ImAG std) was synthesized by the same aldol condensation method to obtain an estimation of the pKa by measuring the absorbance at different pHs in a Varian UV-visible spectrometer, Model Cary Bio-100 as shown in FIG. 14. For the transition pH measurement, Isothermal measurements at 26.0° C. were performed in a SPECTRAmax 340 microplate reader at 650 nm. In these experiments 100 μL of sample was added in each well in triplicate for pH: 5, 5.1, 5.2, 5.3, 5.4, 5.5, 5.6, 5.7, 5.8, 5.9, 6.0, 6.5, 7.0 and 7.5. After the microplate wells were filled, the microplate was placed in the refrigerator (−10° C.) for equilibration. Afterwards, an 85% weighted curve fit was performed to the obtained graph. According to the standard experiments performed, the pKa of ImAG std is between 5.5 and 6.
Aside from the effect of the pH on the precise assembly of the nanoglobular SGQs, we observed, at 26° C., a pH-responsive phase transition where, at pH 5 the system is in solution, but changing it to pH 7 results in the solution becoming cloudy.

[2] = Turbidimetry studies, cloud-point temperature (Tcp); type: physicochemical
Method: as §1
This Tcp, which is measured by turbidimetry studies in UV-Vis, is the transition temperature to form the cluster of self-arranged supramolecular structures known as supramolecular hacky sacks (SHS). The turbidity measurements were performed at 650 nm using a Varian UV-visible spectrometer, Model Cary Bio-100. The heating rate was adjusted at 2.0° C./min using Cary temperature controller apparatus from Varian.

[3] = Differential scanning calorimetry (DSC) of SGQ assemblies; type: physicochemical; settings: for Tt: LCST transition
Method: The ΔGcal and ΔScal values shown in this table correspond to those calculated using the values of Tt, Tm, and ΔHcal from the instrument. All ΔG values were calculated at a temperature of 20° C.
Differential Scanning calorimetry (DSC) analyses were performed on a VP-DSC Micro-Calorimeter from MicroCal and Origin (v.7) was used for data processing. For the experiment, the buffer was first degasified and the experiment was carried out as a blank in both sample and reference cell. Then, the sample was degasified, and the blank buffer in the sample cell to be substituted with sample was removed. Afterwards, the experiment was performed with a temperature ramp of 0° C.-80° C. for 4 cycles.

[4] = test system: neuroblastoma (SH-SY5Y) cells; experiment: MTT viability assay; type: cell-based, human; settings: 0.2 μM DOX
[5] = pKa estimation by UV-VIS absorbance at different pHs; type: physicochemical; settings: UV absorbance at pH 5-7.5
Excerpt: During the synthesis of derivatives ImAGhD2OH and ImAGpD2OH, an ImAG std (with a molecular structure as shown in FIG. 8) was constructed to obtain information of the pKa of the derivative by UV-VIS measurements. This allowed to study the effect of the functionality added in the 8ArG derivative. Derivative (E)-3-(1-methyl-1H-imidazol-2-yl)-1-phenylprop-2-en-1-one (ImAG std), with a chemical formula C13H12N2O, offers an alternative method to determine the pKa without having to perform the entire synthetic sequence for the corresponding compounds ImAGhD2OH and ImAGpD2OH. In the case of ImAG standard, the same procedure as above was followed, but the obtained solid was washed with ether and hexane. ImAG std was characterized as shown in FIG. 9 and FIG. 10 by using ^1H NMR and ^13C NMR, respectively. Yellow solid, mp (125.2-126.3) ° C. […]
Before the imidazole modification of ImAGpD2OH and ImAGhD2OH, chalcone imidazole standard derivative (E)-3-(1-methyl-1H-imidazol-2-yl)-1-phenylprop-2-en-1-one (ImAG std) was synthesized by the same aldol condensation method to obtain an estimation of the pKa by measuring the absorbance at different pHs in a Varian UV-visible spectrometer, Model Cary Bio-100 as shown in FIG. 14. For the transition pH measurement, Isothermal measurements at 26.0° C. were performed in a SPECTRAmax 340 microplate reader at 650 nm. […]

[6] = ImAGpD2OH, pH 5.0, calculated at 20° C.
[7] = ImAGpD2OH, pH 7.0, calculated at 20° C.
[8] = ImAGhD2OH, pH 5.0, calculated at 20° C.
[9] = ImAGhD2OH, pH 5.5, calculated at 20° C.
[10] = ImAGhD2OH, pH 6:0, calculated at 20° C.
[11] = ImAGhD2OH, pH 6.5, calculated at 20° C.
[12] = ImAGhD2OH, pH 7.0, calculated at 20° C.

Which pKa [1] does the source give for `Cn1ccnc1/C=C/C(=O)c1cccc(-c2nc3c(=O)[nH]c(N)nc3n2[C@H]2C[C@H](OC(=O)CCCCn3cc(COC(=O)C(C)(CO)CO)nn3)[C@@H](COC(=O)CCCCn3cc(COC(=O)C(C)(CO)CO)nn3)O2)c1` [ImAGpD2OH] here?
Its pKa is 5.7.

What about the Tcp ([2]; hSGQ at pH 5) of the same compound?
Its Tcp is 42 °C.

And the “shift of ΔTcp” value ([2]; hSGQ at pH 5, relative to ImAGhD2OH)?
Its value is 13 °C.

What about the Tcp ([2]; oSGQ at pH 7) of the same compound?
The Tcp was 15 °C.

What about the “shift of ΔTcp” value ([2]; oSGQ at pH 7, relative to ImAGhD2OH) of the same compound?
Its value is 10 °C.

What about the ΔHTm ([3]; ImAGpD2OH, pH 5.0) of the same compound?
The ΔHTm was 57.01 kcal/mol.

And the ΔHTt ([3]; ImAGpD2OH, pH 5.0)?
The ΔHTt was 8.41 kcal/mol.

And the ΔSTm ([3]; ImAGpD2OH, pH 5.0)?
The ΔSTm was 0.808 kcal/mol · ° C.

What about the ΔSTt ([3]; ImAGpD2OH, pH 5.0) of the same compound?
Its ΔSTt is 0.167 kcal/mol · ° C.

And the Tt ([3]; ImAGpD2OH, pH 5.0, aqueous solution)?
The Tt was 50.5 °C and 50.45 °C.

What about the “ΔGT:” value [3, 6] of the same compound?
Its value is 5.07 kcal/mol.

What about the ΔGTm [3, 6] of the same compound?
Its ΔGTm is 40.85 kcal/mol.

What about the Tm ([3]; ImAGpD2OH, pH 5.0, melting of SGQ assembly) of the same compound?
The Tm was 70.52 °C.

And the ΔHTm ([3]; ImAGpD2OH, pH 7.0)?
The ΔHTm was 101.3 kcal/mol.

What about the ΔHTt ([3]; ImAGpD2OH, pH 7.0) of the same compound?
Its ΔHTt is 4.36 kcal/mol.

What about the ΔSTm ([3]; ImAGpD2OH, pH 7.0) of the same compound?
Its ΔSTm is 1.805 kcal/mol · ° C.

What about the ΔSTt ([3]; ImAGpD2OH, pH 7.0) of the same compound?
Its ΔSTt is 0.505 kcal/mol · ° C.

What about the Tt ([3]; ImAGpD2OH, pH 7.0, aqueous solution) of the same compound?
The Tt was 8.6 °C and 8.631 °C.

What about the “ΔGT:” value [3, 7] of the same compound?
The value was -5.74 kcal/mol.

What about the ΔGTm [3, 7] of the same compound?
Its ΔGTm is 65.20 kcal/mol.

What about the Tm ([3]; ImAGpD2OH, pH 7.0, melting of SGQ assembly) of the same compound?
The Tm was 56.11 °C.

Which “cytotoxicity (MTT)” value [4] does the source give for `COc1cccc2c1C(=O)c1c(O)c3c(c(O)c1C2=O)C[C@@](O)(C(=O)CO)C[C@@H]3O[C@H]1C[C@H](N)[C@H](O)[C@H](C)O1` [DOX, doxorubicin] here?
The value was “cytotoxic”.

With `Cn1ccnc1/C=C/C(=O)c1cccc(-c2nc3c(=O)[nH]c(N)nc3n2[C@H]2C[C@H](OC(=O)CCCCCn3cc(COC(=O)C(C)(CO)CO)nn3)[C@@H](COC(=O)CCCCCn3cc(COC(=O)C(C)(CO)CO)nn3)O2)c1` [ImAGhD2OH] as the compound, how does the pKa [1] read?
Its pKa is 5.7.

And the “transition pH” value ([1]; transmittance at 650 nm, 26° C., at 65% of the transmittance)?
Its value is “around 5.7”.

What about the ΔTcp ([2]; between hSGQ and oSGQ) of the same compound?
The ΔTcp was “≈ 25 °C”.

And the “cloud-point temperature (Tcp)” value ([2]; oSGQ, pH 6-7, 650 nm)?
Its value is “around 4 °C”.

And the “cloud-point temperature (Tcp)” value ([2]; protonated hSGQ, at pHs and 5.5, 650 nm)?
Its value is 29 °C.

And the ΔHTm ([3]; ImAGhD2OH, pH 5.0)?
Its ΔHTm is 64.32 kcal/mol.

And the ΔSTm ([3]; ImAGhD2OH, pH 5.0)?
Its ΔSTm is 0.884 kcal/mol · ° C.

And the ΔSTt ([3]; ImAGhD2OH, pH 5.0)?
Its ΔSTt is 0.778 kcal/mol · ° C.

What about the Tt ([3]; ImAGhD2OH, pH 5.0, aqueous solution) of the same compound?
Its Tt is 59.3 °C and 59.26 °C.

What about the “ΔGT:” value [3, 8] of the same compound?
The value was 30.67 kcal/mol.

And the ΔGTm [3, 8]?
Its ΔGTm is 46.64 kcal/mol.

And the Tm ([3]; ImAGhD2OH, pH 5.0, melting of SGQ assembly)?
The Tm was 72.7 °C and 72.72 °C.

What about the ΔHTm ([3]; ImAGhD2OH, pH 5.5) of the same compound?
The ΔHTm was 62.58 kcal/mol.

What about the ΔHTt ([3]; ImAGhD2OH, pH 5.5) of the same compound?
The ΔHTt was 146 kcal/mol and 146.0 kcal/mol.

And the ΔSTm ([3]; ImAGhD2OH, pH 5.5)?
The ΔSTm was 0.912 kcal/mol · ° C.

And the ΔSTt ([3]; ImAGhD2OH, pH 5.5)?
Its ΔSTt is 2.704 kcal/mol · ° C.

What about the Tt ([3]; ImAGhD2OH, pH 5.5, aqueous solution) of the same compound?
Its Tt is 54.00 °C.

And the “ΔGT:” value [3, 9]?
Its value is 91.92 kcal/mol.

What about the ΔGTm [3, 9] of the same compound?
Its ΔGTm is 44.34 kcal/mol.

And the Tm ([3]; ImAGhD2OH, pH 5.5, melting of SGQ assembly)?
The Tm was 68.64 °C.

What about the ΔHTm ([3]; ImAGhD2OH, pH 6:0) of the same compound?
Its ΔHTm is 11.20 kcal/mol.

And the ΔHTt ([3]; ImAGhD2OH, pH 6:0)?
The ΔHTt was 0.123 kcal/mol.

And the ΔSTm ([3]; ImAGhD2OH, pH 6:0)?
Its ΔSTm is 0.272 kcal/mol · ° C.

What about the ΔSTt ([3]; ImAGhD2OH, pH 6:0) of the same compound?
Its ΔSTt is 0.0216 kcal/mol · ° C.

What about the Tt ([3]; ImAGhD2OH, pH 6:0, aqueous solution) of the same compound?
Its Tt is 5.702 °C.

What about the “ΔGT:” value [3, 10] of the same compound?
The value was -0.309 kcal/mol.

And the ΔGTm [3, 10]?
The ΔGTm was 5.76 kcal/mol.

What about the Tm ([3]; ImAGhD2OH, pH 6:0, melting of SGQ assembly) of the same compound?
Its Tm is 41.12 °C.

What about the ΔHTm ([3]; ImAGhD2OH, pH 6.5) of the same compound?
Its ΔHTm is 11.80 kcal/mol.

And the ΔHTt ([3]; ImAGhD2OH, pH 6.5)?
Its ΔHTt is 0.0522 kcal/mol.

What about the ΔSTm ([3]; ImAGhD2OH, pH 6.5) of the same compound?
Its ΔSTm is 0.316 kcal/mol · ° C.

What about the ΔSTt ([3]; ImAGhD2OH, pH 6.5) of the same compound?
Its ΔSTt is 0.0106 kcal/mol · ° C.

And the Tt ([3]; ImAGhD2OH, pH 6.5, aqueous solution)?
Its Tt is 4.938 °C.

And the “ΔGT:” value [3, 11]?
Its value is -0.160 kcal/mol.

And the ΔGTm [3, 11]?
Its ΔGTm is 5.48 kcal/mol.

What about the Tm ([3]; ImAGhD2OH, pH 6.5, melting of SGQ assembly) of the same compound?
The Tm was 37.32 °C.

What about the ΔHTm ([3]; ImAGhD2OH, pH 7.0) of the same compound?
The ΔHTm was 15.42 kcal/mol.

What about the ΔHTt ([3]; ImAGhD2OH, pH 7.0) of the same compound?
The ΔHTt was 0.078 kcal/mol and 0.0784 kcal/mol.

What about the ΔSTm ([3]; ImAGhD2OH, pH 7.0) of the same compound?
Its ΔSTm is 0.362 kcal/mol · ° C.

What about the ΔSTt ([3]; ImAGhD2OH, pH 7.0) of the same compound?
The ΔSTt was 0.0144 kcal/mol · ° C.

And the Tt ([3]; ImAGhD2OH, pH 7.0, aqueous solution)?
Its Tt is 5.4 °C and 5.449 °C.

And the “ΔGT:” value [3, 12]?
The value was -0.210 kcal/mol.

What about the ΔGTm [3, 12] of the same compound?
Its ΔGTm is 8.18 kcal/mol.

What about the Tm ([3]; ImAGhD2OH, pH 7.0, melting of SGQ assembly) of the same compound?
Its Tm is 42.6 °C and 42.64 °C.

What about the ΔTt ([3]; between oSGQ (pH 7) and hSGQ (pH 5)) of the same compound?
The ΔTt was “≈ 53.9 °C”.

For `Cn1ccnc1/C=C/C(=O)c1ccccc1` [ImAG std, (E)-3-(1-methyl-1H-imidazol-2-yl)-1-phenylprop-2-en-1-one], which pKa [5] is on record?
Its pKa is 5.5 to 6.
